Measured values published in ChEMBL document CHEMBL3813614 (ACS Med Chem Lett, 2016).

What was measured:
Type in all cases: ADME, organism-based
[1] = Ratio of unbound fraction in CD1 mouse brain to plasma at 25 mg/kg, po after 6 hrs by LC-MS/MS analysis; conditions: read-out: K(p,uu,brain)
[2] = Ratio of unbound fraction in CD1 mouse brain to plasma at 50 mg/kg, po after 6 hrs by LC-MS/MS analysis; conditions: read-out: K(p,uu,brain)
Brain [3] = assay: Unbound fraction in CD1 mouse brain at 25 mg/kg, po administered as single dose measured at 6 hrs post dose by LC-MS/MS analysis; conditions: in vivo
[4] = AUC in CD1 mouse at 25 mg/kg, po; conditions: in vivo
Brain [5] = assay: Unbound fraction in CD1 mouse brain at 25 mg/kg, po administered as single dose measured at 1 hr post dose by LC-MS/MS analysis; conditions: in vivo

COC(C)(C)c1cc2nc(-c3cnc(N)nc3)nc(N3CCOCC3)c2s1
Kp uu at 6 h [1]: 0.4

COC1(c2sc3c(N4CCOCC4)nc(-c4cnc(N)nc4)nc3c2C)COC1
Kp uu at 6 h [2]: 0.4

CC1(C)OCCn2c1nc1c(N3CCOCC3)nc(-c3cnc(N)nc3)nc12 [PAXALISIB]
Drug uptake(free) (Brain [3]): 0.16 µM
AUC [4]: 47 µM·h
Drug uptake(free) (Brain [5]): 0.32 µM
